Assay results from US20240389587A1, “COMPOSITIONS AND METHODS FOR CONTROLLING PHYTOPATHOGENIC INFECTIONS” (INSTITUT NATIONAL DE RECHERCHE POUR L'AGRICULTURE, …, priority 2021, published 2024).
Like-named read-outs stand apart in the source and are kept apart here.

Target: T1, IRE1 (Saccharomyces cerevisiae, UniProt P32361)
T1 construct: endogenous in cells
Assay: IRE1 inhibitors screening (inhibition of transcriptional activator HAC1 in yeast)
Assay type: cell-based
From the text: A series of natural products were screened for their capacity to inhibit the UPR pathway via the inhibition of IRE1 in an in vitro screening test, based inhibition of the transcriptional activator HAC1 in Saccharomyces cerevisiae (the IRE1 protein is the ‘sole effector of the UPR pathway in fungi).

[1] = in vitro screening, IRE1 activity of less than 80% = retained as IRE1 inhibitor

T1 sequence (P32361 19-1115): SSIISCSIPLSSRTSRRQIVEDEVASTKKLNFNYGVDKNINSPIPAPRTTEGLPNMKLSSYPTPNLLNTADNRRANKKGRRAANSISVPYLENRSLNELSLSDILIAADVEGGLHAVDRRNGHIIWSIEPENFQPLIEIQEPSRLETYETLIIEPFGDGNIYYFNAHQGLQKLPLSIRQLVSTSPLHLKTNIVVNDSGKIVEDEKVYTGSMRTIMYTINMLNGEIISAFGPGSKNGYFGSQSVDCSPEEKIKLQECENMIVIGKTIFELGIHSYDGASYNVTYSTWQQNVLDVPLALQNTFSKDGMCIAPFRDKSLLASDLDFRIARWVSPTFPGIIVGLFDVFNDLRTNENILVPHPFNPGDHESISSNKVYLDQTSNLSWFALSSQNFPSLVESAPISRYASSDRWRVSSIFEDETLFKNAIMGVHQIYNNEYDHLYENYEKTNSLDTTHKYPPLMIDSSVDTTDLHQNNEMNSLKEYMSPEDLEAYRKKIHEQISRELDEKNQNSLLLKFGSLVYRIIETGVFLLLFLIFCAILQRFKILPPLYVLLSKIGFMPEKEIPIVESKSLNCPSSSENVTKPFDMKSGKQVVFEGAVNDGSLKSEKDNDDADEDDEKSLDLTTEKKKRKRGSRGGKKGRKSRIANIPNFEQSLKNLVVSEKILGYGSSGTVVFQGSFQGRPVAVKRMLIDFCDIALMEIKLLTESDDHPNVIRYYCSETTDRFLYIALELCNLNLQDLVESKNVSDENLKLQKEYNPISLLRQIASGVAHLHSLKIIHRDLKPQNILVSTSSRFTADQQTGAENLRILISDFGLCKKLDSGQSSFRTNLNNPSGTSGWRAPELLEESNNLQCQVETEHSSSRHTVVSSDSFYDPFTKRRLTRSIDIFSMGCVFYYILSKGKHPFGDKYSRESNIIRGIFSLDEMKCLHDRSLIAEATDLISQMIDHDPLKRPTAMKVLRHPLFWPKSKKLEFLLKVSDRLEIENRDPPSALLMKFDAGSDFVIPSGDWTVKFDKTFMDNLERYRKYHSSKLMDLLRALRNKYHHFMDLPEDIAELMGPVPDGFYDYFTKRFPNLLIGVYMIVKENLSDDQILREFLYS

Row | Compound | μ (% activation) ± σ [1] | further results
1 | CC(C)=CCc1c(O)cc2oc3ccc4c(c3c(=O)c2c1O)C=CC(C)(C)O4 [Calothwaitesixanthone] | 104.6 ± 1.4% | –
2 | O=C1C[C@@H](c2ccc(O)cc2)Oc2cc(O)cc(O)c21 [Naringenin] | 101.1 ± 1.2% | –
3 | O=c1c2ccc(O)c(O)c2oc2cc(O)cc(O)c12 [1,3,5,6-tétra-hydroxy-xanthone] | 103.9 ± 0.7% | –
4 | COc1cc(C[C@H]2C(=O)OC[C@@H]2Cc2ccc3c(c2)OCO3)cc(OC)c1OC [Yatein] | – | μ (% activation) ± σ: 100.7 ± 2.5%
5 | C=CC(C)(C)c1c(OC)cc(O)c2c(=O)c3ccc(O)c(O)c3oc12 [Isocudraniaxanthone B] | 94.3 ± 0.9% | –
6 | CC(C)=CCc1c(O)c(CC=C(C)C)c2oc3c(O)cccc3c(=O)c2c1O [8-deoxygartanin] | 96.6 ± 5.7% | –
7 | Mammea A/AA cycloF | 93.8 ± 1.1% | –
8 | c1cc2c(c3c1C[C@H]1c4cc5c(cc4CCN1C3)OCO5)OCO2 [Stylopine] | 101.4 ± 4.1% | –
9 | C=CC(C)(C)c1c2c(c(O)c3c(=O)c4cccc(O)c4oc13)C=CC(C)(C)O2 [Caloxanthone C] | 104.2 ± 2.8% | –
10 | COc1cccc2c1C(=O)c1nccc3cc4c(c-2c13)OCO4 [Oxostephanine, 15-methoxy-3,5-dioxa-11-azapentacyclo [10.7.1.0^2,6.0^8,20.0^14,19]icosa-(20),2(6),7,9,11,14(19),15,17-octaen-13-one] | 77.5 ± 0.9% | –
11 | O=C(/C=C/c1ccc(O)c(O)c1)OC/C=C/c1ccccc1 [Cinnamyl caffeate, [(E)-3-phenylprop-2-enyl] (E)-3-(3,4-dihydroxyphenyl)prop-2-enoate] | 73.4 ± 1.7% | IRE1 inhibition (in words): inhibit IRE1 in a micromolar scale; IC50 (read-out: IRE1 IC50): 21.6 µM
12 | C=CCc1ccc(O)c(-c2ccc(O)c(CC=C)c2)c1 [Honokiol] | 93.9 ± 2% | –
13 | Cycleanine | – | μ (% activation) ± σ: 102.2 ± 1.9%
14 | COc1cc2c(cc1OC)C1Cc3ccc(OC)c(OC)c3C(=O)N1CC2 (racemic) [(±)-8-Oxotetrahydropalmatine] | 99.6 ± 2.8% | –
15 | O=c1ccc2ccc(O)cc2o1 [Umbelliferone] | 105.3 ± 2.3% | –
16 | C[C@H](C/C=C/C(C)(C)O)[C@@H]1CC[C@]2(C)C3=C(CC[C@@]12C)[C@@]1(C)CC[C@H](O)C(C)(C)C1CC3 (stereo partly drawn) [(20R,23E)-Eupha-8,23-diene-3b,25-diol] | 100.6 ± 2.5% | –
17 | CC(C)=CCC[C@@H](C)[C@@H]1CC[C@]2(C)C3=C(CC[C@@]12C)[C@@]1(C)CC[C@H](O)C(C)(C)[C@@H]1CC3 [Euphol] | 105.3 ± 0.7% | –
18 | Pseudoanibacanine | 100.0 ± 3.7% | –
19 | O=C(/C=C/c1ccc(O)c(O)c1)OCc1ccccc1 [Benzyl caffeate] | 104.6 ± 4.8% | –
20 | COc1cc2c(cc1OC)[C@@H]1Cc3ccc(OC)c(OC)c3CN1CC2 [Tétrahydropalmatine] | 101.8 ± 4.8% | –
21 | COc1cc(/C=C/C(=O)CC(=O)/C=C/c2ccc(O)c(OC)c2)ccc1O [Curcumine] | 177.3 ± 10.3% | –
22 | COc1ccc2c(c1O)Oc1c(O)ccc3c1[C@H](C2)N(C)CC3 [Claviculine] | 100.3 ± 2.5% | –

Row | Compound | μ (% activation) ± σ [1] | further results
23 | Cc1cc(O)c2c(c1)C(=O)c1cc(O)cc(O)c1C2=O [Emodin] | 104.5 ± 3.1% | –
24 | 2-Deprenyl-rheediaxanthone B | 97.3 ± 4.2% | –
25 | CC1=CC(=O)C(C(C)C)=CC1=O [Thymoquinone] | 104.3 ± 2.2% | –
26 | Tetraprenyltoluquinone | 100.8 ± 1.5% | –
27 | CC1=C[C@H]2c3c(c(O)c(O)c4oc5cc(O)cc(O)c5c(=O)c34)[C@H](c3cc(O)c(O)c4oc5cc(O)cc(O)c5c(=O)c34)[C@H]2C(C)(C)C1 [Griffipavixanthone] | 96.8 ± 1.3% | –
28 | C[C@H]1C(=O)CC[C@@H]2[C@]1(C)CC[C@H]1[C@@]2(C)CC[C@@]2(C)[C@@H]3CC(C)(C)CC[C@]3(C)CC[C@]12C [Friedelin] | 104.6 ± 0.7% | –
29 | O=c1c2cc(O)ccc2oc2c(O)c(O)c(O)c(O)c12 [2,5,6,7,8-Pentahydroxyxanthone] | 102.3 ± 0.7% | –
30 | (±)-Lindératine | 103.0 ± 2.1% | –
31 | COc1c(O)cc2oc3cc4c(c(O)c3c(=O)c2c1CC=C(C)C)C=CC(C)(C)O4 [9-hydroxycalabaxanthone] | 103.5 ± 2.8% | –
32 | O=c1cc(-c2ccccc2)oc2cc(O)cc(O)c12 [Chrysine] | – | μ (% activation) ± σ: 91.7 ± 1.4%
33 | Oc1cc(O)c2c(c1)O[C@H](c1ccc(O)c(O)c1)[C@H](O)C2 [Epicatechin] | 101.4 ± 0.4% | –
34 | COc1c(OC)c(O)c2c(=O)c(O)c(-c3ccccc3)oc2c1OC [3,5-dihydroxy-6,7,8-trimethoxyflavone] | 98.3 ± 2.4% | –
35 | O=C(O)C1=C[C@@H](O)[C@@H](O)[C@H](O)C1 [Shikimic acid] | 102.0 ± 6.2% | –
36 | (−)-Argemonine | – | μ (% activation) ± σ: 102.6 ± 2.0%
37 | C[n+]1cc2c3c(ccc2c2ccc4cc5c(cc4c21)OCO5)OCO3 [Sanguinarine] | – | μ (% activation) ± σ: 91.1 ± 3.1%
38 | demethylrubraxanthone | – | IC50 (read-out: IRE1 IC50): 6.5 ± 0.4 µM
39 | CC(=O)O[C@H]1C(=O)c2c(O)cc(O)cc2O[C@@H]1c1ccccc1 [Pinobanksine 3-O-acetate] | 100.3 ± 2.7% | –
40 | O=C1c2c(O)cc(O)cc2O[C@@H](c2ccc(O)cc2)[C@@H]1c1c(O)cc(O)c2c(=O)cc(-c3ccc(O)cc3)oc12 (racemic) [(±)-Volkensiflavone] | 95.8 ± 0.5% | –
41 | CC(C)=CCc1c(O)cc2oc3c(CC=C(C)C)c(O)c(O)c(CC=C(C)C)c3c(=O)c2c1O [Garcinon E] | 101.6 ± 3.9% | –
42 | CCCC(=O)c1c(O)c(CC=C(C)C)c2oc(=O)cc(-c3ccccc3)c2c1O [Mammea A/AC] | 102.4 ± 1.7% | –
43 | O=C1c2c(O)cc(O)cc2O[C@H](c2ccccc2)[C@H]1O [Pinobanksine] | 101.5 ± 0.8% | –
44 | Anibacanine | 100.2 ± 3.6% | –

Row | Compound | μ (% activation) ± σ [1] | further results
45 | CC(Cc1ccccc1)NCCCc1ccccc1 (stereo not drawn) [N-(3-Phenyl-n-propyl)-1-phenyl-2-aminopropane] | – | μ (% activation) ± σ: 102.6 ± 1%
46 | CC(C)=CCc1c(O)c(CC=C(C)C)c2oc3c(O)ccc(O)c3c(=O)c2c1O [Gartanin] | 95.1 ± 5.5% | –
47 | CC(C)=CCc1c(O)cc2oc3ccc(O)cc3c(=O)c2c1O [1,3,7-trihydroxy-2-prenylxanthone] | 89.7 ± 0.6% | –
48 | (−)-monomethylester-15 dehydropinifolic acid | 103.8 ± 1.1% | –
49 | O=c1c(O)c(-c2ccc(O)c(O)c2)oc2cc(O)cc(O)c12 [Quercetin] | 98.5 ± 1.4% | –
50 | CC(C)=CCOC(=O)/C=C/c1ccc(O)c(O)c1 [Prenyl caffeate] | 102.4 ± 0.8% | –
51 | C=C(CO)C(=O)O[C@H]1CC(=C)[C@@H]2C[C@H](O)C(=C)[C@@H]2[C@H]2OC(=O)C(=C)[C@@H]21 [Cynaropicrin] | – | μ (% activation) ± σ: 105.6 ± 0.7%
52 | C[C@@H]1O[C@@H](Oc2c(-c3ccc(O)c(O)c3)oc3cc(O)cc(O)c3c2=O)[C@H](O)[C@H](O)[C@H]1O [Quercitrin] | – | μ (% activation) ± σ: 102 ± 2.4%
53 | Caledonixanthone K | 100.7 ± 2% | –
54 | Cc1cc(=O)oc2cc(O)cc(O)c12 [5,7-dihydroxy-4-methyl coumarin] | 104.0 ± 1.4% | –
55 | COc1cc2oc3cc(O)c(OC)c(CC=C(C)C)c3c(=O)c2c(O)c1CC=C(C)C [β-mangostin] | 100.3 ± 4.7% | –
56 | COc1c(O)ccc2c(=O)c3c(O)cc4c(c3oc12)C(C)(C)C(C)O4 (stereo not drawn) [5-O-methyl-2-deprenylrheediaxanthone B] | 91.6 ± 3.3% | –
57 | O=C(CCc1ccc(O)cc1)c1c(O)cc(O)cc1O [Phloretin] | 101.8 ± 1.7% | –
58 | Oc1cc(O)c2c(c1)O[C@H](c1ccc(O)c(O)c1)[C@H](O)[C@H]2c1c(O)cc(O)c2c1O[C@H](c1ccc(O)c(O)c1)[C@H](O)C2 [Procyanidin B2] | – | μ (% activation) ± σ: 101.6 ± 1%
59 | (-)-Curine | 100.0 ± 3.8% | –
60 | CC1(C)C=Cc2c(cc3oc4ccc5c(c4c(=O)c3c2O)C=CC(C)(C)O5)O1 [Thwaitesixanthone] | 101.1 ± 2.1% | –
61 | O=C1C=CC(=O)c2c(O)cccc21 [Juglone, 5-hydroxy-1,4-naphthalenedione] | 43.5 ± 3.7% | IC50: 12.8 µM; IRE1 inhibition (in words): inhibit IRE1 in a micromolar scale
62 | O=c1cc(-c2ccc(O)c(-c3c(O)cc(O)c4c(=O)cc(-c5ccc(O)cc5)oc34)c2)oc2cc(O)cc(O)c12 [Amentoflavone] | 101.8 ± 2.3% | –
63 | CC(C)=CCC/C(C)=C/COc1c2ccoc2cc2oc(=O)ccc12 [Bergamotine] | 103.5 ± 1.6% | –
64 | 5,6-O-dimethyl-2-deprenylrheediaxanthone | 100.3 ± 1.6% | –
65 | COc1cc2c(cc1O)C1Cc3cc(OC)c(OC)cc3C(C2)N1C (single isomer, unassigned; (-)) [(−)-Norargemonine] | – | μ (% activation) ± σ: 101.7 ± 3.6%
